Columns and labels:
angiotensin II (AT II) [1] = assay: Potency of AT II analogs: inhibition of the increase in blood pressure caused by AT II, with and without infusion of the analog; format: in vivo; conditions: for Inhibiting effect in percent, 0.5mcg/kg i.v. AT II: AT II 0.5mcg/kg i.v.; for Inhibiting effect in percent, 1mcg/kg i.v. AT II: AT II 1mcg/kg i.v.; for Inhibiting effect in percent, 2mcg/kg i.v. AT II: AT II 2mcg/kg i.v.
Description: (§1) The potency of the AT II analogs is determined by measuring the increase in blood pressure caused by increasing amounts of AT II with and without infusion of the analog to be tested, at different dosages; duration of action is determined on the basis of the time during which a single injection of the analog to be tested is effective under permanent infusion of AT II.

angiotensin II (AT II) [2] = assay: Duration of action of a single injection of the analog under permanent infusion of AT II; format: in vivo; conditions: single injection 0.1mg/kg i.v. under permanent infusion of AT II
Description: as §1

[3] = analog infusion 1 mcg/kg/min i.v.
[4] = analog infusion 5 mcg/kg/min i.v.
[5] = analog infusion 10mcg/kg/min i.v.

Succinamoyl--Arg--Val--Tyr--Val--His--Pro--Phegly--OH [[Suc^1,Val^5 pgl^8] AT II]
Inhibiting effect in percent, 0.5mcg/kg i.v. AT II (angiotensin II (AT II) [1]; [3]): 42%
Inhibiting effect in percent, 0.5mcg/kg i.v. AT II (angiotensin II (AT II) [1]; [4]): 88%
Inhibiting effect in percent, 0.5mcg/kg i.v. AT II (angiotensin II (AT II) [1]; [5]): 98%
Inhibiting effect in percent, 1mcg/kg i.v. AT II (angiotensin II (AT II) [1]; [3]): 51%
Inhibiting effect in percent, 1mcg/kg i.v. AT II (angiotensin II (AT II) [1]; [4]): 94%
Inhibiting effect in percent, 1mcg/kg i.v. AT II (angiotensin II (AT II) [1]; [5]): 94%
Inhibiting effect in percent, 2mcg/kg i.v. AT II (angiotensin II (AT II) [1]; [3]): 55%
Inhibiting effect in percent, 2mcg/kg i.v. AT II (angiotensin II (AT II) [1]; [4]): 93%
Inhibiting effect in percent, 2mcg/kg i.v. AT II (angiotensin II (AT II) [1]; [5]): 92%
duration of action in min. 0.1mg/kg i.v. (angiotensin II (AT II) [2]): 89 ± 22 min

[1-sarcosine,5-valine, 8-alanine] angiotensin II [[Sar^1,Val^5 Ala^8] AT II]
Inhibiting effect in percent, 0.5mcg/kg i.v. AT II (angiotensin II (AT II) [1]; [3]): 0%
Inhibiting effect in percent, 0.5mcg/kg i.v. AT II (angiotensin II (AT II) [1]; [4]): 63%
Inhibiting effect in percent, 0.5mcg/kg i.v. AT II (angiotensin II (AT II) [1]; [5]): 88%
Inhibiting effect in percent, 1mcg/kg i.v. AT II (angiotensin II (AT II) [1]; [3]): 22%
Inhibiting effect in percent, 1mcg/kg i.v. AT II (angiotensin II (AT II) [1]; [4]): 76%
Inhibiting effect in percent, 1mcg/kg i.v. AT II (angiotensin II (AT II) [1]; [5]): 90%
Inhibiting effect in percent, 2mcg/kg i.v. AT II (angiotensin II (AT II) [1]; [3]): 31%
Inhibiting effect in percent, 2mcg/kg i.v. AT II (angiotensin II (AT II) [1]; [4]): 75%
Inhibiting effect in percent, 2mcg/kg i.v. AT II (angiotensin II (AT II) [1]; [5]): 89%
duration of action in min. 0.1mg/kg i.v. (angiotensin II (AT II) [2]): 66 ± 21 min

Reference: patent US4013791A, “Peptides having an antihypertensive effect” (Hoechst Aktiengesellschaft, priority 1974, dated 1977)
